{"source": "patent US20260166082A1", "about": "“METHODS OF TREATMENT WITH T CELL THERAPY AND IMMUNOMODULATORY AGENT MAINTENANCE THERAPY” (Celgene Corporation, priority 2022, published 2026)", "key": {"[1]": {"tested_on": "patients with multiple myeloma following ASCT", "conditions": "maintenance with lenalidomide following ASCT; 22.1 months follow up; cited from earlier work"}, "minimal residual disease": {"tested_on": "minimal residual disease", "test": "Example 1: MRD negativity by next-generation sequencing and EuroFlow", "type": "in vivo, human", "conditions": "subjects on lenalidomide maintenance after anti-BCMA CAR-T cells, subsequent analysis", "description": "Exploratory endpoints, which included assessment of biomarkers (serum level of soluble BCMA (sBCMA) and inflammatory cytokines) by Luminex assay and minimal residual disease negativity (MRD−) by using aggregation of next-generation sequencing and 8-color flow cytometry (EuroFlow; sensitivity <10^−5 nucleated cells) data with interpolation to reduce missing/indeterminate data points. sBCMA levels were evaluated at leukapheresis; baseline; days 1, 4, and 8; and until disease progression. Plasma levels of immune-related inflammatory cytokines (interferon-γ (IFNγ), interleukin-6 (IL-6), interleukin-8 (IL-8) and interleukin-10 (IL-10)) were evaluated at leukapheresis; baseline; days 1-8, 10, 12, 15 18 and 22; and months 2 and 4. Efficacy and safety were analyzed in all subjects who received anti-BCMA CAR-T cells. PK, sBCMA, and MRD-were analyzed in evaluable subjects."}}}
{"molecule": "Nc1cccc2c1CN(C1CCC(=O)NC1=O)C2=O", "note": "(centres unmarked) [lenalidomide, 3-(4-amino-1-oxo-1,3-dihydro-2H-isoindol-2-yl) piperidine-2,6-dione]", "values": [{"measurement": "complete response rate", "setting": "[1]", "result": 60.9, "unit": "%"}, {"measurement": "patients achieving minimal residual disease negativity", "setting": "[1]", "result": 20.4}, {"measurement": "MRD-negativity maintained at 36 months", "setting": "minimal residual disease; 2/3 evaluable", "result": 66.7, "unit": "%"}, {"measurement": "MRD-negativity maintained at 12 months", "setting": "minimal residual disease; 4/6 evaluable", "result": 66.7, "unit": "%"}, {"measurement": "MRD-negativity maintained at 24 months", "setting": "minimal residual disease; 4/6 evaluable", "result": 66.7, "unit": "%"}]}
